The values that follow come from patent publication US7189717B2, “Medicinal compositions promoting bowel movement” (Eisai Co., Ltd., priority 2000, dated 2007).

In test [1] the test system is guinea pig distal colon longitudinal muscles. The settings on record: cited from earlier work; for pA2 value of the antagonistic action on the relaxing action of NECA: electrical stimulation.
Test [2] has the same test system. The settings on record: KCl + tetrodotoxin, cited from earlier work.
Test [3] concerns rat distal colon longitudinal muscles. The settings on record: cited from earlier work; for Relaxation of Carbachol-contracted muscles: agonist added at 0.1 to 30 μM.
Test [4] relates to guinea pig colon longitudinal muscles. The note with it: 100 nM; cited from earlier work.
The nature of test [5]: Urine volume in rat (Test Example 2). The note with it: rats, oral, Table 4. The format is in vivo. As to the method: (§1) SD IGS rats (6-weeks-old, from Charles River) were placed in cages (3 animals/cage) and preliminarily allowed food and water ad libitum and raised for 1 week. On the day of the experiment, their weight was measured, a water-absorbing sheet was placed below each cage, and the animals were fasted but allowed water ad libitum throughout the experiment. Three hours after fasting was initiated, the fecal pellets were recovered from each cage and observed for abnormality before the experiment, and then the compound suspended or dissolved in 0.5% (W/V) methyl cellulose (MC) was orally administered into each rat in a dose of 5 ml/kg. On one hand, 0.5% (W/V) MC only was orally given to the control group. After administering the compound, the rats were returned to the cage provided with a new water-absorbing sheet of known weight, and 180 minutes after the administration, the fecal pellets on the water-absorbing sheet were recovered from each cage, and the external appearance was observed, and the number of fecal pellets was counted. […] After the fecal pellets were recovered, the water-absorbing sheet was weighed, and the weight determined by subtracting the initial weight of the water-adsorbing sheet from the weight after the experiment was regarded as the volume of urine and expressed as the volume of urine per 100 g of the body weight (Table 4).

In test [6] the test system is SD IGS rats. Briefly: Defecation-promoting action in rat, number of fecal pellets (Test Example 2). The settings on record: for The number of fecal pellets/3 rats: Test Example 2. Type of test: in vivo. As for the experimental part: SD IGS rats (6-weeks-old, from Charles River) were placed in cages (3 animals/cage) and preliminarily allowed food and water ad libitum and raised for 1 week. On the day of the experiment, their weight was measured, a water-absorbing sheet was placed below each cage, and the animals were fasted but allowed water ad libitum throughout the experiment. Three hours after fasting was initiated, the fecal pellets were recovered from each cage and observed for abnormality before the experiment, and then the compound suspended or dissolved in 0.5% (W/V) methyl cellulose (MC) was orally administered into each rat in a dose of 5 ml/kg. On one hand, 0.5% (W/V) MC only was orally given to the control group. After administering the compound, the rats were returned to the cage provided with a new water-absorbing sheet of known weight, and 180 minutes after the administration, the fecal pellets on the water-absorbing sheet were recovered from each cage, and the external appearance was observed, and the number of fecal pellets was counted. The number of fecal pellets is expressed per each cage (Table 4). After the fecal pellets were recovered, the water-absorbing sheet was weighed, and the weight determined by subtracting the initial weight of the water-adsorbing sheet from the weight after the experiment was regarded as the volume of urine and expressed as the volume of urine per 100 g of the body weight (Table 4).

Test [7] deals with SD IGS rats. Briefly: Evaluation of defecation-promoting action (Table 10). Type of test: in vivo, rat. The note with it: 180 minutes, n = 6 cages/group. As to the method: That is, SD IGS rats (6-to 7-weeks-old, from Charles River) were placed in cages (3 animals/cage) and preliminarily allowed food and water ad libitum and raised for 1 week. On the day of the experiment, their weight was measured, a water-absorbing sheet was placed below each cage, and the animals were fasted but allowed water ad libitum throughout the experiment. Thee hours after fasting was initiated, the fecal pellets were recovered from each cage and observed for abnormality before the experiment, and then the compound suspended in 0.5% (w/v) methyl cellulose (MC) was orally administered in a dose of 5 ml/kg. On one hand, 0.5% (w/v) MC only was orally given to the control group. After administration of the compound, the rats were returned to the cage provided with a new water-absorbing sheet, and 180 minutes after the administration, the fecal pellets on the water-absorbing sheet were recovered from each cage, and the external appearance was observed, and the number of fecal pellets was counted. The number of fecal pellets is expressed per each cage.

Test [8] relates to SD IGS rats. Put plainly: Contribution of inhibition of adenosine A2b receptor to defecation-promoting action (Test Example 3). The format is in vivo, rat. As to the method:
as §1, with “4). […]” for “4).”

Structures are written as SMILES. Like-named read-outs stand apart in the source and are kept apart here.

For the molecule `CCNC(=O)[C@H]1O[C@@H](n2cnc3c(N)nc(NCCc4ccc(CCC(=O)O)cc4)nc32)[C@H](O)[C@@H]1O` [CGS21680, 2-p-[2-carboxyethyl]phenetylamino-5′-N-ethylarboxyamide adenosine], the “Relaxation of muscles contracted by electrical stimulation” value (“Relaxation of muscles contracted” for short) in test [1] is reported as “very weak”. Moreover, the Relaxing action result in test [2] (1 μM) was “did not act”. For the same molecule, in test [3] (10 μM), the “Antagonism of the relaxing action of NECA and CPA” value is “not antagonized”.

On to `OC[C@H]1O[C@@H](n2cnc3c(NC4CCCC4)ncnc32)[C@H](O)[C@@H]1O` [CPA], for which the “Relaxing action on contraction stimulated by acetylcholine” value in test [4] is reported as “did not exhibit a relaxing action”. The “Relaxation of muscles contracted” value in test [1] is reported as “relaxation was observed”. In addition, the “Relaxation of Carbachol-contracted muscles” value in test [3] is given as “relaxation was observed”.

For the molecule `Nc1ncc(-c2ccncc2)c(-c2ccco2)n1` [Compound I, 2-Amino-4-(2-furyl)-5-(4-pyridyl)pyrimidine], the “Diuretic action (in words)” value in test [5] is given as “weaker diuretic action than the A1-selective antagonist KW3902”. Besides, in the test with SD IGS rats [6] (rats, oral, Table 4), the “Defecation-promoting action (in words)” value is recorded as “evidently higher defecation-promoting action”.

Take `CCCn1c(=O)c2[nH]c(C3CCCC3)nc2n(CCC)c1=O` [DPCPX]: in test [1], the “pA2 value of the antagonistic action on the relaxing action of NECA” value is given as 8.8. In test [2] (1 nM), the “Antagonistic action on the relaxing action” value is “did not show an antagonistic action”. The “Antagonistic action on the relaxing action of NECA and CPA” value in test [2] (10 nM) is “inhibited the relaxing action of NECA and CPA”. Besides, in test [2], the “pA2 value against CPA” value is given as 7.0 and the “pA2 value against NECA” value is listed as 6.6. Moreover, the “Antagonism of the relaxing action of NECA and CPA” value in test [3] (1 μM) is “antagonized”.

On to `Nc1nc(N)c(-c2ccncc2)c(-c2cccc(F)c2)n1` [Example 1, 6-(3-Flurophenyl)-5-(4-pyridyl)-2,4-pyrimidine diamine], for which the “The number of fecal pellets/3 rats” value with SD IGS rats [7] (3 mg/kg oral) was found to be 14.83 ± 1.82 fecal pellets/3 rats; with SD IGS rats [7] (10 mg/kg oral) it was 23.17 ± 2.94 fecal pellets/3 rats.

On to `Cn1c(=O)c2[nH]c(-c3ccccc3)nc2n(C)c1=O` [Example 8-PT, 8-phenyltheophylline], for which the “pA2 value of the antagonistic action on the relaxing action of NECA” value in test [1] is 6.5. Moreover, in test [2] (10 μM), the “pA2 value upon inhibition of the action of NECA” value is 5.7.

Turning to `CCCn1c(=O)c2[nH]c(C34CC5CC(CC3C5)C4)nc2n(CCC)c1=O` [KW3902], the “The number of fecal pellets/3 rats” value came to 18.25 ± 1.49 fecal pellets/3 rats with SD IGS rats [8] (KW3902 1 mg/kg together with KW6002 1 mg/kg, 180 minutes); 9.00 ± 1.08 fecal pellets/3 rats in the test with SD IGS rats [8] (KW3902 1 mg/kg without KW6002, 180 minutes); 10.67 ± 2.08 fecal pellets/3 rats in the test on SD IGS rats [6] (0.3 mg/kg oral, 180 minutes after administration); 14.50 ± 1.18 fecal pellets/3 rats with SD IGS rats [6] (1 mg/kg oral, 180 minutes); 12.83 ± 1.66 fecal pellets/3 rats in the test with SD IGS rats [6] (3 mg/kg oral, 180 minutes). Further, the “Diuretic action (in words)” value in test [5] is recorded as “stronger diuretic action than Compound I”.

Consider `CCNC(=O)[C@H]1O[C@@H](n2cnc3c(N)ncnc32)[C@H](O)[C@@H]1O` [NECA, 5′-N-ethylcarboxyamide adenosine], for which the “Relaxing action on contraction stimulated by acetylcholine” value in test [4] is “did not exhibit a relaxing action”. Also, in test [1], the “Relaxation of muscles contracted” value is “relaxation was observed”. In test [3], the “Relaxation of Carbachol-contracted muscles” value is “relaxation was observed”.
